*1 amine or outer side, *2 acyl side, *3 side chain or, on linkers, in order; H or OH if unused. Where a SMILES comes first, the peptide text is derived from it. Side-chain parts run from the residue outwards. [ ]: non-standard residue; d: D form. The star is where a group is joined. C18 diacid = O=C(O)CCCCCCCCCCCCCCCCC(=O)*; C16 diacid = O=C(O)CCCCCCCCCCCCCCC(=O)*; γGlu = O=C(O)[C@H](CCC(=O)[*:2])N[*:1]; NMeI = CC[C@H](C)[C@H](NC)C(=O)O; Pentanoyl = CCCCC(=O)*; Aib = CC(C)(N)C(=O)O; Propionyl = CCC(=O)*
Experiments:
[1] = target: T1, human CRF2a receptor (Homo sapiens, UniProt Q13324); test: Activity at human CRF2a receptor, cAMP functional assay in TeloHEAC cells; type: cell-based; settings: TeloHEAC cells stably expressing human CRF2a receptor, relative to urocortin 2 (100 nM = 100%)
T1 construct: expressed in transfected cells; host or cells: TeloHEAC cells
T1 sequence (Q13324 1-411): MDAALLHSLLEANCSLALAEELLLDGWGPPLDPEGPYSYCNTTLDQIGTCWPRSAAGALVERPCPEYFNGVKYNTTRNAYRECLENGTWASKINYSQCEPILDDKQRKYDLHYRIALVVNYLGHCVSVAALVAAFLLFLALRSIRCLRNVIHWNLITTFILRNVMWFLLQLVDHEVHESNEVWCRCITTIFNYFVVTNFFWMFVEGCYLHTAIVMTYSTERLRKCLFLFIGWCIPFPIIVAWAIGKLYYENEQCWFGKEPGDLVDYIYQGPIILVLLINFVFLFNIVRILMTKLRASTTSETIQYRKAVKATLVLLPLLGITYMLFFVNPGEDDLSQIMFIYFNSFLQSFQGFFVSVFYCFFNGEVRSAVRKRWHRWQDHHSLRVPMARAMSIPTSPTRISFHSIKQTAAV
Method: Agonism of compounds for human corticotropin-releasing factor 2a (CRF2a receptor) was determined by a functional assay measuring cAMP modulation upon treatment of TeloHEAC cells stably expressing human CRF2a receptor. Compounds were dissolved at 0.5 mM in 100% DMSO and serially diluted (1:2) in 100% DMSO for 16 dilutions. 20 nL of each dilution was then transferred to 384-well assay plate using an acoustic droplet ejection instrument. 5 μL of compound buffer (1×HBSS; 20 mM HEPES,) were then added to each well. Prior to use, frozen cells were thawed quickly at 37° C. and washed (5 min at 900 rpm) with 20 mL cell buffer (1×HBSS; 20 mM HEPES). Cells were resuspended in cell buffer added with 2 mM IBMX and adjusted to a cell density of […]. 5 μL cells (final dell density: 10000 cells/well) were dispensed in the compound-containing 384-well assay plate and incubated for 30 minutes 37° C. The cAMP level in treated cells was determined using the Cisbio 62AM4PEC kit according to manufacturer's instruction. Finally, plates were incubated for 1 h at room temperature before measuring the fluorescence ratio between 665/620 nm. The percent activity value (E %) was calculated by setting 100 nM of urocortin 2 (UCN2) as 100%. The in vitro potency of the compounds was quantified by determining the concentrations that caused 50% activation of maximal response (EC50) relative to urocortin 2.

[2] = target: T2, CFR1R receptor (Homo sapiens, UniProt P34998); test: Activity at anti-target CFR1R receptor, cAMP assay in CRF1R-overexpression CHO-K1 cells; type: cell-based; settings: 100% = Sauvagine at 100 nM; for EC50: cAMP
T2 construct: host or cells: CHO-K1 (clone 2)
T2 sequence (P34998 24-415): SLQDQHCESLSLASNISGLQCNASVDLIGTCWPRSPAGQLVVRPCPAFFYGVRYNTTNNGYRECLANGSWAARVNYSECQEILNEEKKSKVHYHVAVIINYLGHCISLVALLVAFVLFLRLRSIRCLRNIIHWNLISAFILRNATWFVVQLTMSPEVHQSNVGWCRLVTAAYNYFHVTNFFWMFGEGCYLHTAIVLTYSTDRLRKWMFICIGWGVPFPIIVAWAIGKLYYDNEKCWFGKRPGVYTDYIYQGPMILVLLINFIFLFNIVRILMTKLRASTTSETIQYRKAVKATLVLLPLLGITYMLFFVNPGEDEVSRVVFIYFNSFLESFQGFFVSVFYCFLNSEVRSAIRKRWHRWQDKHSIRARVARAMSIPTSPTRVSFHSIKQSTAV
Procedure, shortened: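 The method mirrors that used with TeloHAEC cells. Here, thawed clone 2 cells seeded at 4000 cells/well are tested, and 100 nM Sauvagine sets the top of the activation scale.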

SMILES	EC50 [1]	Emax (% I) [2]	EC50 [2]
CC[C@H](C)[C@H](NC(C)=O)C(=O)N[C@H](C(=O)N[C@@H](CC(C)C)C(=O)N[C@@H](CO)C(=O)N[C@@H](CC(C)C)C(=O)N[C@@H](CC(=O)O)C(=O)N[C@@H](C(=O)N1CCC[C@H]1C(=O)N[C@H](C(=O)N[C@@H](CCCCN)C(=O)N[C@@H](CC(C)C)C(=O)N[C@@H](CCCCNC(=O)CC[C@H](NC(=O)CCCCCCCCCCCCCCC(=O)O)C(=O)O)C(=O)N[C@@H](CCCCN)C(=O)N[C@H](C(=O)N[C@@H](CC(C)C)C(=O)N[C@@H](CC(C)C)C(=O)N[C@@H](CCCCN)C(=O)N[C@@H](CCC(N)=O)C(=O)N[C@@H](CCC(=O)O)C(=O)N[C@@H](CCCNC(=N)N)C(=O)N[C@@H](CCC(N)=O)C(=O)N[C@@H](CCCCN)C(=O)N[C@@H](CCCCN)C(=O)N[C@@H](CCC(N)=O)C(=O)N[C@@H](CCCNC(=N)N)C(=O)N[C@@H](CCC(=O)O)C(=O)N[C@@H](CCC(N)=O)C(=O)N[C@@H](C)C(=O)N[C@@H](CCC(=O)O)C(=O)N[C@@H](CCCCN)C(=O)N[C@@H](CC(N)=O)C(=O)NC(C)(C)C(=O)N[C@@H](CCC(N)=O)C(=O)N[C@H](C(=O)N[C@@H](CC(C)C)C(=O)N[C@@H](CCC(=O)O)C(=O)N[C@@H](CCC(N)=O)C(=O)N[C@H](C(N)=O)C(C)C)[C@@H](C)CC)[C@@H](C)CC)[C@@H](C)CC)C(C)C)C(C)C [compound 21] (Ac-IVLSLD[dV]PIKLK([γGlu-C16 diacid])KILLKQERQKKQREQAEKN[Aib]QILEQV-NH2)	0.34 nM	5 % I	> 250 nM
CCCCC(=O)N[C@H](C(=O)N[C@@H](CC(C)C)C(=O)N[C@@H](CO)C(=O)N[C@@H](CC(C)C)C(=O)N[C@@H](CC(=O)O)C(=O)N[C@@H](C(=O)N1CCC[C@H]1C(=O)N[C@H](C(=O)N[C@@H](CCCCN)C(=O)N[C@@H](CC(C)C)C(=O)N[C@@H](CCCCNC(=O)CC[C@H](NC(=O)CCCCCCCCCCCCCCC(=O)O)C(=O)O)C(=O)N[C@@H](CCC(N)=O)C(=O)NC(C)(C)C(=O)N[C@@H](CC(C)C)C(=O)N[C@@H](CC(C)C)C(=O)N[C@@H](CCCCN)C(=O)N[C@@H](CCC(N)=O)C(=O)N[C@@H](CCC(=O)O)C(=O)N[C@@H](CCCNC(=N)N)C(=O)N[C@@H](CCC(N)=O)C(=O)N[C@@H](CCCCN)C(=O)N[C@@H](CCCCN)C(=O)N[C@@H](CCC(N)=O)C(=O)N[C@@H](CCCNC(=N)N)C(=O)N[C@@H](CCC(=O)O)C(=O)N[C@@H](CCC(N)=O)C(=O)N[C@@H](C)C(=O)N[C@@H](CCC(=O)O)C(=O)N[C@@H](CCCCN)C(=O)N[C@@H](CC(N)=O)C(=O)N[C@H](C(=O)N[C@@H](CCC(N)=O)C(=O)N[C@H](C(=O)N[C@@H](CC(C)C)C(=O)N[C@@H](CCC(=O)O)C(=O)N[C@@H](CCC(N)=O)C(=O)N[C@H](C(N)=O)C(C)C)[C@@H](C)CC)C(C)C)[C@@H](C)CC)C(C)C)C(C)C [compound 22] (Pentanoyl-VLSLD[dV]PIKLK([γGlu-C16 diacid])Q[Aib]LLKQERQKKQREQAEKNVQILEQV-NH2)	4.44 nM	3 % I	> 250 nM
CC[C@H](C)[C@H](NC)C(=O)N[C@H](C(=O)N[C@@H](CC(C)C)C(=O)N[C@@H](CO)C(=O)N[C@@H](CC(C)C)C(=O)N[C@@H](CC(=O)O)C(=O)N[C@@H](C(=O)N1CCC[C@H]1C(=O)N[C@H](C(=O)N[C@@H](CCCCN)C(=O)N[C@@H](CC(C)C)C(=O)N[C@@H](CCCCNC(=O)CC[C@H](NC(=O)CCCCCCCCCCCCCCCCC(=O)O)C(=O)O)C(=O)N[C@@H](CCC(N)=O)C(=O)N[C@H](C(=O)N[C@@H](CC(C)C)C(=O)N[C@@H](CC(C)C)C(=O)N[C@@H](CCCCN)C(=O)N[C@@H](CCC(N)=O)C(=O)N[C@@H](CCC(=O)O)C(=O)N[C@@H](CCCNC(=N)N)C(=O)N[C@@H](CCC(N)=O)C(=O)N[C@@H](CCCCN)C(=O)N[C@@H](CCCCN)C(=O)N[C@@H](CCC(N)=O)C(=O)N[C@@H](CCCNC(=N)N)C(=O)N[C@@H](CCC(=O)O)C(=O)N[C@@H](CCC(N)=O)C(=O)N[C@@H](C)C(=O)N[C@@H](CCC(=O)O)C(=O)N[C@@H](CCCCN)C(=O)N[C@@H](CC(N)=O)C(=O)NC(C)(C)C(=O)N[C@@H](CCC(N)=O)C(=O)N[C@H](C(=O)N[C@@H](CC(C)C)C(=O)N[C@@H](CCC(=O)O)C(=O)N[C@@H](CCC(N)=O)C(=O)N[C@H](C(N)=O)C(C)C)[C@@H](C)CC)[C@@H](C)CC)[C@@H](C)CC)C(C)C)C(C)C [compound 23] (H-[NMeI]VLSLD[dV]PIKLK([γGlu-C18 diacid])QILLKQERQKKQREQAEKN[Aib]QILEQV-NH2)	0.33 nM	35 % I	> 250 nM

The next lines start with the values.

EC50 [1]	Emax (% I) [2]	EC50 [2]	SMILES
0.04 nM	37 % I	> 250 nM	CC[C@H](C)[C@H](NC)C(=O)N[C@H](C(=O)N[C@@H](CC(C)C)C(=O)N[C@@H](CO)C(=O)N[C@@H](CC(C)C)C(=O)N[C@@H](CC(=O)O)C(=O)N[C@@H](C(=O)N1CCC[C@H]1C(=O)N[C@H](C(=O)N[C@@H](CCCCN)C(=O)N[C@@H](CC(C)C)C(=O)N[C@@H](CCCCNC(=O)CC[C@H](NC(=O)CCCCCCCCCCCCCCCCC(=O)O)C(=O)O)C(=O)N[C@@H](CCC(N)=O)C(=O)N[C@H](C(=O)N[C@@H](CC(C)C)C(=O)N[C@@H](CC(C)C)C(=O)N[C@@H](CCCCN)C(=O)N[C@@H](CCC(N)=O)C(=O)N[C@@H](CCC(=O)O)C(=O)N[C@@H](CCCNC(=N)N)C(=O)N[C@@H](CCC(N)=O)C(=O)N[C@@H](CCCCN)C(=O)N[C@@H](CCCCN)C(=O)N[C@@H](CCC(N)=O)C(=O)N[C@@H](CCCNC(=N)N)C(=O)N[C@@H](CCC(=O)O)C(=O)N[C@@H](CCC(N)=O)C(=O)N[C@@H](C)C(=O)N[C@@H](CCC(=O)O)C(=O)N[C@@H](CCCCN)C(=O)N[C@@H](CC(N)=O)C(=O)N[C@@H](C)C(=O)N[C@@H](CCC(N)=O)C(=O)N[C@H](C(=O)N[C@@H](CC(C)C)C(=O)N[C@@H](CCC(=O)O)C(=O)N[C@@H](CCC(N)=O)C(=O)N[C@H](C(N)=O)C(C)C)[C@@H](C)CC)[C@@H](C)CC)[C@@H](C)CC)C(C)C)C(C)C [compound 24] (H-[NMeI]VLSLD[dV]PIKLK([γGlu-C18 diacid])QILLKQERQKKQREQAEKNAQILEQV-NH2)
0.23 nM	13 % I	> 250 nM	CCC(=O)N[C@H](C(=O)N[C@@H](CC(C)C)C(=O)N[C@@H](CO)C(=O)N[C@@H](CC(C)C)C(=O)N[C@@H](CC(=O)O)C(=O)N[C@@H](C(=O)N1CCC[C@H]1C(=O)N[C@H](C(=O)N[C@@H](CCCCN)C(=O)N[C@@H](CC(C)C)C(=O)N[C@@H](CCCCNC(=O)CC[C@H](NC(=O)CCCCCCCCCCCCCCC(=O)O)C(=O)O)C(=O)N[C@@H](CCCCN)C(=O)N[C@H](C(=O)N[C@@H](CC(C)C)C(=O)N[C@@H](CC(C)C)C(=O)N[C@@H](CCC(=O)O)C(=O)N[C@@H](CCC(N)=O)C(=O)N[C@@H](CCC(=O)O)C(=O)N[C@@H](CCCCN)C(=O)N[C@@H](CCC(N)=O)C(=O)N[C@@H](CCCCN)C(=O)N[C@@H](CCCCN)C(=O)N[C@@H](CCC(N)=O)C(=O)N[C@@H](CCCNC(=N)N)C(=O)N[C@@H](CCC(=O)O)C(=O)N[C@@H](CCC(N)=O)C(=O)N[C@@H](C)C(=O)N[C@@H](CCC(=O)O)C(=O)N[C@H](C(=O)N[C@@H](CC(N)=O)C(=O)N[C@@H](CCCCN)C(=O)N[C@@H](CCC(N)=O)C(=O)N[C@H](C(=O)N[C@@H](CC(C)C)C(=O)N[C@@H](C)C(=O)N[C@@H](CCC(N)=O)C(=O)N[C@H](C(N)=O)C(C)C)[C@@H](C)CC)[C@@H](C)O)[C@@H](C)CC)[C@@H](C)CC)C(C)C)C(C)C [compound 35] (Propionyl-VLSLD[dV]PIKLK([γGlu-C16 diacid])KILLEQEKQKKQREQAETNKQILAQV-NH2)

Source: patent publication US20260001928A1 (CORTERIA PHARMACEUTICALS, priority 2022, published 2026)
